The target in experiment [1] is T1, OX2R (Homo sapiens, UniProt O43614).
T1 sequence (O43614 1-444): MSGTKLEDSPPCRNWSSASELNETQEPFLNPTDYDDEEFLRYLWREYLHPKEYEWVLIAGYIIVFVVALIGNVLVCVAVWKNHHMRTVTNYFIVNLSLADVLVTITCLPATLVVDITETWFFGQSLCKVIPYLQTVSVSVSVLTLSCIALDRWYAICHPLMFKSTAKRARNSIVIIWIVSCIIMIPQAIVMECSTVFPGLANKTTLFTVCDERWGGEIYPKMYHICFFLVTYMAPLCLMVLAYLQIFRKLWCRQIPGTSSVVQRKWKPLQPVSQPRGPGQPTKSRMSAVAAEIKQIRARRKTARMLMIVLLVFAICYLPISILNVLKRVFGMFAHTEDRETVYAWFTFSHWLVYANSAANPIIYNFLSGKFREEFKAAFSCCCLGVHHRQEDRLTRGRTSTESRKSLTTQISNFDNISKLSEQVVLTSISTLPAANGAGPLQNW
Put plainly: Inhibition of orexin-peptide-A-induced calcium mobilization in CHO cells, human OX2R. As to conditions: for fold OX2R selectivity (Kb): OX1R Kb / OX2R Kb. Also noted: expressed in transfected cells; host or cells: CHO-K1. The format is cell-based. The procedure:
(§1) MK-1064 was evaluated for its ability to inhibit orexin-peptide-A-induced calcium mobilization in CHO cell lines separately expressing OX1R and OX2R from mice, rats, rabbits, dogs, rhesus monkeys and humans.
(§2) Binding and functional blockade of OX1R and OX2R with MK-1064 relative to other 2-SORAs and the DORA, MK-6096, were assessed using membranes from Chinese hamster ovary (CHO)-K1 cells (American Type Tissue Collection, Manassas, VA) transfected to express human, mouse, rat, rabbit, dog, or rhesus monkey OX1R or OX2R receptors, as described previously. The kinetics of binding to human OX2R was assessed by radioligand displacement on CHO-K1 cells expressing the receptor. […] The ON rate analysis was performed by presoaking GF/B filters in 0.3% polyethyleneimine (Sigma) using a Skatron 12-well cell harvester and cold buffer at the indicated time points after addition. For OFF rate determination, binding reactions were allowed to proceed to equilibrium and terminated with 1000x [Kd] of unlabeled antagonist and filtered as above at pre-determined time points. Ultima Gold^TM (PerkinElmer 6013327) scintillation cocktail was added to each filter disc and counted on a PerkinElmer TriCarb 2910 scintillation counter. Data were analyzed using GraphPad® Prism v 6.04 (San Diego, CA, USA). The KON rate was determined according to the equation, KON = (KOBS − KOFF)/[ligand].
For orientation: Calcium flux is commonly read through the fluorescence of an indicator in the cells.

In experiment [2] the target is T2, OX2R (Oryctolagus cuniculus, UniProt G1STQ8).
T2 sequence (G1STQ8 1-444): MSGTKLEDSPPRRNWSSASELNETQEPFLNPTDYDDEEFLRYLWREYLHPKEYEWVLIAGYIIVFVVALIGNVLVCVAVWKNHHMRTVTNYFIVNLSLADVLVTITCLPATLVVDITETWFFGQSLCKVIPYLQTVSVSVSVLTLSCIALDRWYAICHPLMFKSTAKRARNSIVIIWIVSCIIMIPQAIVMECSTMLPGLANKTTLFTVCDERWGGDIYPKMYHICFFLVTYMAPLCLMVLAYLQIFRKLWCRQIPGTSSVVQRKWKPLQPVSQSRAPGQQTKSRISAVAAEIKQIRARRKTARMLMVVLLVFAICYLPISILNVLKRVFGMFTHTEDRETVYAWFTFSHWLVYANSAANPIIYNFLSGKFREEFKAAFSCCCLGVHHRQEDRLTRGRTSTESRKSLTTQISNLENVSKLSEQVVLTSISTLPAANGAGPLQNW
Put plainly: Radio-ligand displacement binding, CHO-K1 membranes, rabbit OX2R. The settings on record: for fold OX2R selectivity (Ki): OX1R Ki / OX2R Ki; for Ki: read-out: OX2R affinity (Ki). The procedure:
as §1, §2

Another experiment has as its target T3, OX1R (Canis lupus familiaris, UniProt A0A8I3RSX8).
T3 sequence (A0A8I3RSX8 1-427): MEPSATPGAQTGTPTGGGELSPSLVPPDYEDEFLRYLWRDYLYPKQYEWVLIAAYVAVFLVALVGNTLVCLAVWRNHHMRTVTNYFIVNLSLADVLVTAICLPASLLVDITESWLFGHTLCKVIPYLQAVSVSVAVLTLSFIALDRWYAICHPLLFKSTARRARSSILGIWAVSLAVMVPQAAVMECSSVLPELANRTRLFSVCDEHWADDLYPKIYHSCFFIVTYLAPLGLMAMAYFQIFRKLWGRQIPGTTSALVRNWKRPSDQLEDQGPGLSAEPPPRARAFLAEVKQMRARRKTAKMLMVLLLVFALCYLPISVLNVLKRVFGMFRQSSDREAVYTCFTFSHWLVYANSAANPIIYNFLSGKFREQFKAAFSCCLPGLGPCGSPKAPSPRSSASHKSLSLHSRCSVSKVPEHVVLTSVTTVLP
Kind of experiment: Inhibition of orexin-peptide-A-induced calcium mobilization in CHO cells, dog OX1R. The format is cell-based. The procedure:
as §1, §2

Experiment [3] concerns the target T4, OX2R (Macaca mulatta, UniProt F7CZM2).
T4 sequence (F7CZM2 1-444): T1 sequence (O43614 1-444) with V113L, T195S, V196M, M286I, I308V, A334T, E337D
Kind of experiment: Inhibition of orexin-peptide-A-induced calcium mobilization in CHO cells, rhesus OX2R. In kind it is cell-based, rhesus monkey. The settings on record: for fold OX2R selectivity (Kb): OX1R Kb / OX2R Kb. Here is the method: as §1, §2

For experiment [4], the target named is T5, OX2R (Canis lupus familiaris, UniProt Q9TUP7).
T5 construct: expressed in transfected cells; host or cells: CHO-K1
T5 sequence (Q9TUP7 1-444): T2 sequence (G1STQ8 1-444) with R12C, S19P, I70V, D217E, V272A, S275P, A277G, L414F, E415D
Kind of experiment: Inhibition of orexin-peptide-A-induced calcium mobilization in CHO cells, dog OX2R. In kind it is cell-based. As to conditions: for fold OX2R selectivity (Kb): OX1R Kb / OX2R Kb. The procedure: as §1, §2

Where a chain is given by its changes, count along the chain named.

Turning to `COc1ccc(CNC(=O)c2cc(-c3cncc(C)c3)ncc2-c2ccccc2)nc1OC` [2-SORA-7], the Kb on OX2R [1] is 12 nM; at OX1R, > 10000 nM; on OX2R [3], 18 nM; on OX2R [4], 13 nM. The “fold OX2R selectivity (Kb)” value at OX2R [1] is “[363] fold”; at OX2R [3], “[203] fold”; at OX2R [4], “[>769] fold”. Also, the “fold OX2R selectivity (Ki)” value on OX2R [2] is “[9986] fold”. Moreover, at OX2R [2], the Ki stood at 0.44 nM.

For the compound `COc1ccc(CNC(=O)c2cc(-c3cc(Cl)cc(Cl)c3)cnc2-c2cccnc2)cc1OC` [2-SORA-18], the Kb on OX2R [1] is 18 nM; on OX1R, 87 nM; on OX2R [3] it was 23 nM; at OX2R [4] it was 27 nM. Further, the “fold OX2R selectivity (Kb)” value was “[9] fold” on OX2R [1], “[6] fold” at OX2R [3] and “[3] fold” on OX2R [4]. Also, on OX2R [2], the “fold OX2R selectivity (Ki)” value is “[2410] fold”. Further, the Ki on OX2R [2] was 0.1 nM.

For `COc1ccc(CNC(=O)c2cc(-c3cncc(Cl)c3)cnc2-c2ccccn2)nc1OC` [MK-1064, 5″-chloro-N-[(5,6-dimethoxypyridin-2-yl)methyl]-2,2′:5′, 3″-terpyridine-3′-carbo xamide], the Kb on OX2R [1] was 9 nM; on OX1R, 3700 nM; at OX2R [3] it was 9 nM; on OX2R [4] it was 11 nM. Further, the “fold OX2R selectivity (Kb)” value at OX2R [1] was “[208] fold”; on OX2R [3], “[375] fold”; at OX2R [4] it was “[337] fold”. Besides, on OX2R [2], the “fold OX2R selectivity (Ki)” value is “[4780] fold”. The Ki on OX2R [2] stood at 0.51 nM.

Take `COc1ccc(CNC(=O)c2cc(-c3cncc(C)c3)ncc2-c2nccs2)nc1OC` [MK-3697]: the Kb on OX2R [1] was 14 nM; on OX1R, > 10000 nM; on OX2R [3], 20 nM; at OX2R [4], 16 nM. Further, the Ki at OX2R [2] is 1.01 nM.

As for `Cc1ccc(-c2ncccn2)c(C(=O)N2C[C@H](COc3ccc(F)cn3)CC[C@H]2C)c1` [MK-6096], the Kb was determined as 11 nM on OX2R [1], 10 nM at OX1R, 14 nM on OX2R [3] and 10 nM at OX2R [4]. Moreover, the “fold OX2R selectivity (Kb)” value at OX2R [1] was “[1.0] fold”; on OX2R [3], “[1.5] fold”; at OX2R [4], “[1.0] fold”. Further, the “fold OX2R selectivity (Ki)” value on OX2R [2] was “[9.3] fold”. For the same compound, on OX2R [2], the Ki was 0.28 nM.

The term Ki denotes a measure of affinity in units of concentration, obtained from inhibition or displacement.

The record behind these values is PMC4891657, “Orexin 2 Receptor Antagonism is Sufficient to Promote NREM and REM Sleep from Mouse to Man” (Scientific Reports, 2016).
